# Results published in article PMC8070004, “Isorhamnetin Ameliorates Dry Eye Disease via CFTR Activation in Mice” (International Journal of Molecular Sciences, 2021).
# Legend:
# hERG potassium channel = target: T1, hERG potassium channel (Homo sapiens, UniProt Q12809); test: FluxOR potassium ion channel assay in HEK293T cells expressing hERG; type: cell-based; conditions: 30 μM pretreated for 10 min
# T1 construct: expressed in transfected cells; host or cells: HEK293 / HEK293T
# Protocol: HEK293 cells stably expressing human Kv11.1 (hERG) were plated in 96-well plates. After 48 h, the cells were incubated at 28 °C for 4 h to enhance membrane expression of hERG. The culture medium was replaced with 80 μL/well of FluxOR (Invitrogen) loading buffer and incubated for 1 h at 37 °C in the dark. After removal of the loading buffer, 100 µL of assay buffer were added to each well. To measure the effect of isorhamnetin on hERG channels, the cells were pretreated with isorhamnetin for 10 min. FluxOR fluorescence (excitation/emission: 490/525 nm) was recorded for 4 s before addition of 20 μL of stimulus buffer containing thallium ions, and the fluorescence was monitored. FluxOR fluorescence was recorded and analyzed using FLUOstar Omega Microplate Reader (BMG Labtech) and MARS Data Analysis Software (BMG Labtech). All buffers were prepared according to the manufacturer’s instructions.
# [1] = tested on: conjunctival epithelial (ConjE) cells; test: MTS cell viability assay in ConjE cells; type: cell-based, human; conditions: 48 h; isorhamnetin 30 μM, Triton X-100 0.01%
# Protocol: Immortalized human CorE [47] and immortalized human ConjE (Innoprot, Bizkaia, Spain) cells were plated on 96-well microplates. After 24 h incubation, cells were treated with 30 μM isorhamnetin or 0.01% Triton X-100 and then they were incubated for two days. An equal amount of DMSO was added to the control. The culture medium and the compounds were changed every 12 h. To assess cell proliferation, after 48 h of incubation with the compound, the cells were reincubated with MTS for 1 h. The soluble formazan produced by cellular reduction of MTS was quantified by measuring the absorbance at 490 nm with Infinite M200 (Tecan, Grödig, Austria) microplate reader. MTS assay was done using CellTiter 96 AQueous One Solution Cell Proliferation Assay kit (Promega, Madison, WI, USA).
# human ΔF508-CFTR = target: T2, human ΔF508-CFTR (Homo sapiens, UniProt P13569, DEL508-508); test: Apical membrane current in FRT cells expressing low-temperature-rescued ΔF508-CFTR; type: cell-based
# T2 construct: expressed in transfected cells; host or cells: FRT (Fisher rat thyroid) cells, provided by Dr. Alan Verkman; 27 °C for 24 h
# T2 sequence (P13569 with tags, fused parts or gaps DEL508-508): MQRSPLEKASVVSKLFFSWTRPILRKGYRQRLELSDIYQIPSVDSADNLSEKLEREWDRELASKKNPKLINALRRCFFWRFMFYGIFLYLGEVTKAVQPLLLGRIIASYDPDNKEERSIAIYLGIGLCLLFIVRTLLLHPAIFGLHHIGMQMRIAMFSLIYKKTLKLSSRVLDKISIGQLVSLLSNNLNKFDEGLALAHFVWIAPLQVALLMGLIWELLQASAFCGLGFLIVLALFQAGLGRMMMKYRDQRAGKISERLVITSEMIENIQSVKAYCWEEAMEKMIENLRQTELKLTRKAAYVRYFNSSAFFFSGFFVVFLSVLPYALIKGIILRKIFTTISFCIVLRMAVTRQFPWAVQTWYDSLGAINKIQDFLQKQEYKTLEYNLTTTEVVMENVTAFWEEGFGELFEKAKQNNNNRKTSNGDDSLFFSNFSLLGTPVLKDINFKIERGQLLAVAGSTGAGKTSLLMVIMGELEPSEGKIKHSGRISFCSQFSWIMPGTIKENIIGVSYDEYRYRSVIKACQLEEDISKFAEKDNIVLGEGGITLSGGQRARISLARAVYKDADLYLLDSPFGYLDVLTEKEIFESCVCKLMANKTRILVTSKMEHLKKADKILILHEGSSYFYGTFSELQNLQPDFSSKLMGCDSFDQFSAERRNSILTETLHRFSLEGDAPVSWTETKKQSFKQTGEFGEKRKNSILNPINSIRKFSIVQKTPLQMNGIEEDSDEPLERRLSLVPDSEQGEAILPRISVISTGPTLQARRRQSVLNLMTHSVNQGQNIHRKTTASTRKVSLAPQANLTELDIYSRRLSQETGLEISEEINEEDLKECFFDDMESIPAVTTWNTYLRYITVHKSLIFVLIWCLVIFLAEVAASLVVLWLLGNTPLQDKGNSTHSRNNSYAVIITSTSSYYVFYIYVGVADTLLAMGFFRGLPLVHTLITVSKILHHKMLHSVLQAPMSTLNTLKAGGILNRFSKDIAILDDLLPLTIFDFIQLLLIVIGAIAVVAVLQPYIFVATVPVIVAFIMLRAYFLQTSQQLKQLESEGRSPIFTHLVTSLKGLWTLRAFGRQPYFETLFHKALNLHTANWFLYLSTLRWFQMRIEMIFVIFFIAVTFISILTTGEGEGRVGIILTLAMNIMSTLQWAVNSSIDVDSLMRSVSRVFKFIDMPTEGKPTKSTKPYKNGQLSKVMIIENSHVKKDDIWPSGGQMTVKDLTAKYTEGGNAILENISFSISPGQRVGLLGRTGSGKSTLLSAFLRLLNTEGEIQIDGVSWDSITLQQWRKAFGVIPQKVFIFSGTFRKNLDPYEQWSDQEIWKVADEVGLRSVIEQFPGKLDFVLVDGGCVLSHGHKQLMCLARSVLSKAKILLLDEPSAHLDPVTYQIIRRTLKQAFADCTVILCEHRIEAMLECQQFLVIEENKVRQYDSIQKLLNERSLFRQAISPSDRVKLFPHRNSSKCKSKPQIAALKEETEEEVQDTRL
# Protocol: Snapwell inserts containing CFTR-expressing FRT and T84 cells were mounted in Ussing chambers (Physiologic Instruments, San Diego, CA, USA). Forskolin, isorhamnetin, and CFTRinh-172 were added to the apical and basolateral bath solution. For FRT cells, the apical bath was filled with a half-Cl^− solution and the basolateral bath was filled with HCO^3--buffered solution to generate transepithelial Cl^− gradient (apical, 64 mM; basolateral, 129 mM), and the basolateral membrane was permeabilized with 250 µg/mL amphotericin B. For T84 cells, symmetrical HCO^3--buffered solutions were used, and ENaC was inhibited with amiloride (100 µM). All cells were bathed for a 20-min stabilization period and aerated with 95% O2/5% CO2 at 37 °C. Apical membrane current and short-circuit current were measured with an EVC4000 Multi-Channel V/I Clamp (World Precision Instruments, Sarasota, FL, USA) and recorded using PowerLab 4/35 (AD Instruments, Castle Hill, Australia). Data were collected and analyzed with ADInstruments acquisition software Labchart Pro 7 software. The sampling rate was 4 Hz.
# [2] = tested on: pro-inflammatory cytokine mRNA expression; test: Real-time PCR of pro-inflammatory cytokines in cornea and conjunctiva of dry eye mice; type: in vivo, mouse
# Protocol: Eight-week-old C57BL/6 mice were used for this experiment. Experimental dry eye was induced by subcutaneous injection of 0.5 mg/100 μL scopolamine hydrobromide (Sigma-Aldrich, St. Louis, MO, USA) three times a day with a standard desiccating environment created by placing the mice in a chamber with a continuous air flow (15 L/min) in a room at 25 °C with an ambient humidity of 12%. Fourteen days after the initiation of experimental dry eye, the mice were treated or not with 5-μL drop of ophthalmic formulation (30 μM isorhamnetin in PBS with 0.1% DMSO) or vehicle three times a day. Eight days after the initiation of the formulation treatment, scopolamine injection was stopped. Ten days after the initiation of the formulation treatment, measurement of tear volume, corneal disruption, and relative mRNA level was performed.
# The mRNA expressions of IL-1β, IL-6, IL-8, TNF-α, IFN-γ, and MMP-9 in cornea and conjunctiva of the dry eye model-treated mice were measured by qPCR. RNA was isolated using TRIzol reagent (Invitrogen, Carlsbad, CA, USA), and 1 μg of RNA was used to synthesize complementary DNA (cDNA) using RNA to cDNA EcoDryTM premix (TaKaRa, Shiga, Japan) according to the manufacturer’s protocol. The relative mRNA levels were measured in ViiA7 (Applied Biosystems, Foster City, CA, USA) using SYBR Green PCR Master Mix (Applied Biosystems). The primer sequences used were as follows: GAPDH, sense (5-[…]-3) and antisense (5-[…]-3), size of PCR product 155 base pairs; IL-1β, sense (5-[…]-3) and antisense (5-[…]-3), size of PCR product 199 base pairs; IL-6, sense (5-[…]-3) and antisense (5-[…]-3), size of PCR product 131 base pairs; IL-8, sense (5-[…]-3) and antisense (5-[…]-3), size of PCR product 190 base pairs; TNF-α, sense (5-[…]-3) and antisense (5-[…]-3), size of PCR product 166 base pairs; IFN-γ, sense (5-[…]-3) and antisense (5- […]-3), size of PCR product 156 base pairs; and MMP-9, sense (5-[…]-3) and antisense (5-[…]-3), size of PCR product 190 base pairs. The mRNA levels of the cytokines and MMP-9 were normalized to GAPDH levels and the fold-change in gene expression was determined by using 2^-ΔΔCT method.
# [3] = cornea of the dry eye mouse model
# T1 sequence (Q12809 whole entry): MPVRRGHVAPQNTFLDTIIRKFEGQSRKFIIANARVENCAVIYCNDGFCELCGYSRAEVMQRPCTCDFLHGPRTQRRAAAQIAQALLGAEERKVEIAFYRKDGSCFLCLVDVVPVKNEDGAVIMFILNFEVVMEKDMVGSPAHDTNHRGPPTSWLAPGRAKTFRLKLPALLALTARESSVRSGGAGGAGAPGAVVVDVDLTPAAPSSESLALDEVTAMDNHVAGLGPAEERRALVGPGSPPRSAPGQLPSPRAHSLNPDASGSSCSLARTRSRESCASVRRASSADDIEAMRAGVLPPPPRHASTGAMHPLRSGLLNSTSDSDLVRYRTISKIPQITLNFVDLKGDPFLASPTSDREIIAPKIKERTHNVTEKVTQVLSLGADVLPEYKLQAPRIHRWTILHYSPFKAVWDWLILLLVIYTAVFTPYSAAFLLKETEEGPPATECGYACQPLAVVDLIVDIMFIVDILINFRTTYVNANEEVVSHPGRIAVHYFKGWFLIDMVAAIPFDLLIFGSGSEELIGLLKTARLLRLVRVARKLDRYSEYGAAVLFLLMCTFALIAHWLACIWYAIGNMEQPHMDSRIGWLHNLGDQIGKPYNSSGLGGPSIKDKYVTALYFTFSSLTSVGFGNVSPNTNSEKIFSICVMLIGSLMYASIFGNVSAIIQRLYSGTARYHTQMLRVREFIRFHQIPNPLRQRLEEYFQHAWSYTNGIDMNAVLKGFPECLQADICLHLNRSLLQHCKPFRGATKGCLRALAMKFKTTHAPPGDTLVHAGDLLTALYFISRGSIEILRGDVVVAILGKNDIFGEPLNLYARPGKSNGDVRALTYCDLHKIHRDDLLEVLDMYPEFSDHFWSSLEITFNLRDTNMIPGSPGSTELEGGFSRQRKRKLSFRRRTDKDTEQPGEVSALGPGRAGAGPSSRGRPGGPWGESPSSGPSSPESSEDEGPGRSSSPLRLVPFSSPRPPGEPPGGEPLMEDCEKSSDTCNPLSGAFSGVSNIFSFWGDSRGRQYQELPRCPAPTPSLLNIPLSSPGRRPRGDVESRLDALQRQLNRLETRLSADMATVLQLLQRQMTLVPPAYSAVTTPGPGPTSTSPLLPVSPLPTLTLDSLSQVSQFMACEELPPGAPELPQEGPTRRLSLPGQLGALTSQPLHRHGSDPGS
smiles,measurement,setting,value
COc1cc(-c2oc3cc(O)cc(O)c3c(=O)c2O)ccc1O [isorhamnetin],hERG channel activity,hERG potassium channel,did not affect
same,"cell viability (MTS), ConjE cells",[1],did not affect the cell viability
same,ΔF508-CFTR chloride current activated by 20 μM forskolin,human ΔF508-CFTR; 30 μM isorhamnetin,doubled
same,forskolin-induced ΔF508-CFTR chloride current,"human ΔF508-CFTR; dose-dependent, ΔF508-CFTR rescued at 27 °C for 24 h",strongly potentiated
same,IL-1β expression,[2]; [3],significantly reduced
same,IL-8 expression,[2]; [3],significantly reduced
same,TNF-α expression,[2]; [3],significantly reduced
same,mRNA expression of cytokines in cornea and conjunctiva,[2]; dry eye mice treated with isorhamnetin for 10 days,strongly reduced
